In patent US5631259A, “Cycloalkltriols containing cyclic substituents, processes and intermediate products for their preparation and their use as antiviral and antiparasitic agents” (priority 1991, dated 1997):

What was measured:
Pneumocystis carinii = Pneumocystis carinii pneumonia in dexamethasone-treated rats, bronchial lavage evaluated with Pneumocystis carinii test kit; format: in vivo, Spraque-Dawley rats; conditions: Monday, Wednesday and Friday for two weeks
Description: Pneumocystis carinii--Description of the experiment and results
Spraque-Dawley rats, 200-220 g, were collected into groups of 10 animals and treated with dexamethasone 1.5 mg/ml; of loxacin 0.2 mg/rat via the drinking water in order to induce the outbreak of pneumonia caused by Pneumocystis carinii.
After 7 weeks, the dexamethasone treatment was stopped and the preparation treatment was started.
Treatment was carried out every Monday, Wednesday and Friday for two weeks as follows:
2. pentamidine 20 mg/kg i.m.
3. pentamidine 40 mg/kg i.m.
After the two treatment weeks, a bronchial lavage was performed on the animals under Nembutal anesthesia.
The bronchial suspensions obtained were worked up and evaluated using the Pneumocystis carinii test kit from Progen Biotechnik GmbH, Heidelberg, Germany.

in vitro = conditions: human, hela cells

## O=c1c(Cl)c(Cl)cnn1[C@@H]1C[C@H](O)[C@@H](O)[C@H]1O (racemic) [Example 3.10.1, 4,5-dichloro-2-[(1RS,2SR,3RS,4SR)-2,3,4-trihydroxy-cyclopent-1-yl]pyridazin-3(2H)-one]
Pneumocystis carinii; 20 mg/kg oral
  Reduction (%): 22.9%

## Nc1ncnc2c1ncn2[C@@H]1C[C@H](O)[C@@H](O)[C@H]1O (racemic) [Example 3.1.1, 9-[(1RS,2SR,3RS,4SR)-2,3,4-trihydroxycyclo-pent-1-yl]adenine]
In vitro
  MNTC: > 400 µg/mL

## N=C(N)c1ccc(OCCCCCOc2ccc(C(=N)N)cc2)cc1 [pentamidine]
Pneumocystis carinii; 20 mg/kg i.m.
  Reduction (%): 37.7%
Pneumocystis carinii; 40 mg/kg i.m.
  Reduction (%): 16.9%

## CNc1ncnc2c1ncn2[C@H]1C[C@@H](O)[C@H](O)[C@@H]1O (relative stereo) [Example 3.3, N^6-methyl-9-[(1RS,2SR,3RS,4SR)-trihydroxy-cyclopent-1-yl]adenine]
In vitro
  MNTC: > 400 µg/mL
